The source of these data is patent publication US12049483B2, “Selective and noncovalent inhibitors of oncogenic RAS mutants” (New York University, priority 2020, dated 2024).

One assay deals with T1, KRAS(G12V) (Homo sapiens, UniProt P01116, G12V).
T1 construct: KRAS4B residues 1-174 containing G12C, G12V, G12D, G13D, Q61L, WT; His6 (N, cleaved yes); Avi-tag (N, cleaved yes); made in house; host or cells: E. coli BL21(DE3)
The assay is described as follows: BLI binding to KRAS(G12V). As to conditions: nucleotide state GTPγS. The text has this: (§1) Protein expression and purification. All proteins used for monobody development and binding assays, including RAS constructs (KRAS4B residues 1-174 containing G12C, G12V, G12D, G13D, Q61L, WT, NRAS(WT), and HRAS(WT)), Monobodies, and RAF-1 RBD (residues 51-131) were produced with an N-terminal tag containing His6, Avi-tag for biotinylation and a TEV protease recognition site using the pHBT vector. The proteins were produced in E. coli BL21(DE3). To produce biotinylated proteins, E. coli BL21(DE3) with the pBirA plasmid was used as the host and grown in the presence of 50 μM of biotin. Expressed proteins were purified using Ni-Sepharose columns (GE Healthcare) via gravitational flow, followed by dialysis in Tris buffered saline (TBS, 50 mM Tris-Cl pH7.5 containing 150 mM NaCl) for non-RAS proteins. TBS containing 20 mM MgCl2 and 0.5 mM DTT was used for RAS proteins. Samples were further purified using a Superdex 75 size exclusion column on AKTA Pure systems (GE Healthcare). HRAS(WT) and HRAS(G12C) (residues 1-166) used for crystallization was produced as a fusion protein with His6 and yeast SUMO at the N terminus using an in-house vector described previously. […]
(§2) Biolayer interferometry (BLI) analysis. […] BLI signals were analyzed using Octet Data Analysis software (Molecular Devices).
A general note: Biolayer interferometry detects binding as a change in optical thickness at a sensor tip.

The target of the next assay is T2, KRAS(WT) (Homo sapiens, UniProt P01116).
T2 construct: KRAS4B residues 1-174 containing G12C, G12V, G12D, G13D, Q61L, WT; made in house; host or cells: E. coli BL21(DE3) with pBirA
The experiment in a line: Yeast display binding titration, KRAS(WT). The following applies: either nucleotide-bound form. The method, then:
(§3) Nucleotide exchange of RAS. Purified RAS proteins used in binding experiment and crystallization were prepared by diluting stock protein (typically containing 20-250 μM RAS) 25 times with 20 mM Tris-Cl buffer pH 7.5 containing 5 mM EDTA, 0.1 mM DTT and 1 mM final concentration of a nucleotide (GDP or GTPγS). Samples were incubated at 30° C. for 30 minutes. MgCl2 was then added to the sample at a final concentration of 20 mM and the solution was further incubated on ice for at least 5 minutes prior to use.
(§4) Monobody development. General procedures for the development of monobodies against purified protein targets have been described previously. After four rounds of phage display library selection using biotinylated KRAS(G12C) at concentrations of 100 nM, 100 nM, 50 nM and 50 nM, the genes encoding monobodies from the enriched phage pool were transferred to a yeast display vector, which was used to construct yeast-display libraries. The yeast display libraries were sorted using a Bio-Rad S3e fluorescence-activated cell sorter or a […] II cell sorter (BD Biosciences). […] Single clones were then screened for selective binding to RAS mutants. The expression of monobodies on the surface of yeast cells were detected using mouse anti-VS and anti-mouse IgG-FITC conjugate. Target binding was detected with neutravidin Dylight650. Yeast cells were analyzed using an iQue flow cytometer (Sartorius). […]

A further assay deals with KRAS(G12C) (Homo sapiens, UniProt P01116, G12C). The assay is described as follows: BLI binding to KRAS(G12C). Also on record: KRAS4B residues 1-174 containing G12C, G12V, G12D, G13D, Q61L, WT; His6 (N, cleaved yes); Avi-tag (N, cleaved yes); made in house; host or cells: E. coli BL21(DE3). The following applies: nucleotide state GTPγS.
Description: as §1, §2

The next assay addresses T3, KRAS(G12D) (Homo sapiens, UniProt P01116, G12D).
T3 construct: KRAS4B residues 1-174 containing G12C, G12V, G12D, G13D, Q61L, WT; made in house; host or cells: E. coli BL21(DE3) with pBirA
The assay is described as follows: Yeast display binding titration, KRAS(G12D). The following applies: GTPγS and GDP bound states. The protocol:
as §3, §4

In a further assay the test system is PATU8902 tumors. The experiment in a line: Mouse xenograft model, PATU8902. The class given is in vivo. The following applies: subcutaneous PATU8902 in nude mice; dox-induced expression after tumor size exceeded 100 mm^3. The protocol:
Mouse xenograft experiments. Animal experiments were approved by NYU Langone Institutional Animal Care and Use Committee (IACUC, protocol 170602). PATU8902 or H23 cells expressing monobody under a dox-inducible promotor (5×10^6) were subcutaneously injected into athymic nude mice (Charles River). Once the average tumor size exceeded 100 mm^3, the mice were given food containing doxycycline (Envigo; TD.01306). Tumor sizes were measured using a digital caliper thrice a week along with body weight to ensure that mice were healthy through the duration of doxycycline treatment.

Another assay deals with T4, HRAS(WT) (Homo sapiens, UniProt P01112).
T4 construct: made in house; host or cells: E. coli BL21(DE3) with pBirA
T4 sequence (P01112 whole entry): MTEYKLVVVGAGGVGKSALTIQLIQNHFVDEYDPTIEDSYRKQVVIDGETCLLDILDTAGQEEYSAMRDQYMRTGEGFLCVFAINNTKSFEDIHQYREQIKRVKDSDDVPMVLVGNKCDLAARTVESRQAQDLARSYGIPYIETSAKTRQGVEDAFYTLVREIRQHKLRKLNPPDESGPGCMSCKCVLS
The experiment in a line: Yeast display binding titration, HRAS(WT). The following applies: GTPγS and GDP bound states. The protocol: as §3, §4

Entries after “also recorded” stand apart in the source; their conditions may differ.

What is called koff is the first-order rate constant of dissociation. Lower therefore signals a long-lived complex. Consider “VSSVPTKLEVVAATPTSLLISWDAPAVTVFFYVITYGETGHGVGAFQAFKVPGSKSTATISGLKPGVDYTITVYARGYSKQGPYKPSPISINYRT [12VC1]”, for which the koff on KRAS(G12V) turned out to be 0.007 s⁻¹; on KRAS(G12C), 0.0027 s⁻¹. Further, the binding entry at KRAS(WT) is “did not detectably bind”; on KRAS(G12D), “no binding”; at HRAS(WT) it was “no binding; also recorded: did not detectably bind”. In addition, the tumor growth entry with PATU8902 tumors is listed as “significantly reduced tumor growth”.
